Measurements as given in patent publication US9592221B2, “Antibacterial agents: aryl myxopyronin derivatives” (priority 2012, dated 2017).
In brackets after ≈: the same amount, converted by molar mass.

What was measured:
Yersinia pestis C092 = assay: microbe, parasite or virus in culture; format: cell-based; conditions: Yersinia pestis, C092, read-out: MIC Y. pestis C092
[1] = tested on: Escherichia coli D21f2tolC; assay: MIC, spiral gradient endpoint assay, E. coli D21f2tolC; format: cell-based; conditions: Escherichia coli, D21F2TOLC, read-out: MIC E. coli D21f2toIC
[2] = tested on: Mycobacterium tuberculosis H37Rv; assay: MIC, microplate Alamar Blue assay, M. tuberculosis; format: cell-based
[3] = target: E. coli RNA polymerase σ^70 holoenzyme (Escherichia coli, UniProt P0A8T7+P0A8V2); assay: Fluorescence-detected RNA polymerase assay, E. coli RNA polymerase; format: biochemical; conditions: read-out: IC50 E. coli RNAP
Brucella melitensis 16M = assay: microbe, parasite or virus in culture; format: cell-based; conditions: Brucella melitensis, 16M, read-out: MIC B. melitensis 16M
[4] = tested on: Francisella tularensis SCHU4; assay: microbe, parasite or virus in culture; format: cell-based; conditions: Francisella tularensis, SCHU4, read-out: MIC F. tularensis SCHU4
[5] = target: S. aureus RNA polymerase core enzyme, S. aureus σ^A (Staphylococcus aureus, UniProt P47768+Q2G0N5); assay: Fluorescence-detected RNA polymerase assay, S. aureus RNA polymerase; format: biochemical; conditions: read-out: IC50 S. aureus RNAP
[6] = tested on: Burkholderia pseudomallei Human/Blood/OH/US/1994; assay: microbe, parasite or virus in culture; format: cell-based; conditions: Burkholderia pseudomallei, read-out: MIC B. pseudomallei Human/Blood/OH
[7] = tested on: Staphylococcus aureus ATCC 12600; assay: MIC, spiral gradient endpoint assay, S. aureus ATCC 12600; format: cell-based; conditions: ATCC12600; Staphylococcus aureus ATCC 12600
[8] = tested on: Bacillus anthracis Vollum 1b; assay: microbe, parasite or virus in culture; format: cell-based; conditions: Bacillus anthracis, VOLLUM1B, read-out: MIC B. anthracis Vollum-1b
Burkholderia mallei CHN7 = assay: microbe, parasite or virus in culture; format: cell-based; conditions: Burkholderia mallei, CHN7, read-out: MIC B. mallei CHN7
[9] = tested on: Acinetobacter baumannii ATCC 19606; assay: MIC, spiral gradient endpoint assay, A. baumannii; format: cell-based; conditions: ATCC19606; Acinetobacter baumannii ATCC 19606
[10] = target: M. tuberculosis RNA polymerase core enzyme, M. tuberculosis σ^A (Mycobacterium tuberculosis, UniProt P9WGY7+P9WGY9); assay: Fluorescence-detected RNA polymerase assay, M. tuberculosis RNA polymerase; format: biochemical; conditions: read-out: IC50 M. tuberculosis RNAP
Chain of M. tuberculosis RNA polymerase core enzyme, M. tuberculosis σ^A (P9WGI1 whole entry): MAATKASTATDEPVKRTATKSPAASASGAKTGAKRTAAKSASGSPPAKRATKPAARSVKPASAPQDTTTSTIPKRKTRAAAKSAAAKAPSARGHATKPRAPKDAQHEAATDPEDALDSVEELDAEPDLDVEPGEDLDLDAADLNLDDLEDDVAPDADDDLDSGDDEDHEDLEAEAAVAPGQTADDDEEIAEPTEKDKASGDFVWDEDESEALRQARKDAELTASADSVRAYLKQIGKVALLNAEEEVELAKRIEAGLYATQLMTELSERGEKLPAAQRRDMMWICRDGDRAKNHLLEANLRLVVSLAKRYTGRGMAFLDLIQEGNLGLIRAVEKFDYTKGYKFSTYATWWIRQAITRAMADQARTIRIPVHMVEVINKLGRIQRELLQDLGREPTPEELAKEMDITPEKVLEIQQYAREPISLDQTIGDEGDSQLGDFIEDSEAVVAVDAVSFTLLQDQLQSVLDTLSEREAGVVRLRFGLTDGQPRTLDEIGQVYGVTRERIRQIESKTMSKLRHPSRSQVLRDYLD
Chain of M. tuberculosis RNA polymerase core enzyme, M. tuberculosis σ^A (P9WGY5 whole entry, further chain): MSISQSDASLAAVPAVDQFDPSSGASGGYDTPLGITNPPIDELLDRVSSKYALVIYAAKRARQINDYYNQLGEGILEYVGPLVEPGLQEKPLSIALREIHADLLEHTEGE
Chain of M. tuberculosis RNA polymerase core enzyme, M. tuberculosis σ^A (P9WGY7 whole entry): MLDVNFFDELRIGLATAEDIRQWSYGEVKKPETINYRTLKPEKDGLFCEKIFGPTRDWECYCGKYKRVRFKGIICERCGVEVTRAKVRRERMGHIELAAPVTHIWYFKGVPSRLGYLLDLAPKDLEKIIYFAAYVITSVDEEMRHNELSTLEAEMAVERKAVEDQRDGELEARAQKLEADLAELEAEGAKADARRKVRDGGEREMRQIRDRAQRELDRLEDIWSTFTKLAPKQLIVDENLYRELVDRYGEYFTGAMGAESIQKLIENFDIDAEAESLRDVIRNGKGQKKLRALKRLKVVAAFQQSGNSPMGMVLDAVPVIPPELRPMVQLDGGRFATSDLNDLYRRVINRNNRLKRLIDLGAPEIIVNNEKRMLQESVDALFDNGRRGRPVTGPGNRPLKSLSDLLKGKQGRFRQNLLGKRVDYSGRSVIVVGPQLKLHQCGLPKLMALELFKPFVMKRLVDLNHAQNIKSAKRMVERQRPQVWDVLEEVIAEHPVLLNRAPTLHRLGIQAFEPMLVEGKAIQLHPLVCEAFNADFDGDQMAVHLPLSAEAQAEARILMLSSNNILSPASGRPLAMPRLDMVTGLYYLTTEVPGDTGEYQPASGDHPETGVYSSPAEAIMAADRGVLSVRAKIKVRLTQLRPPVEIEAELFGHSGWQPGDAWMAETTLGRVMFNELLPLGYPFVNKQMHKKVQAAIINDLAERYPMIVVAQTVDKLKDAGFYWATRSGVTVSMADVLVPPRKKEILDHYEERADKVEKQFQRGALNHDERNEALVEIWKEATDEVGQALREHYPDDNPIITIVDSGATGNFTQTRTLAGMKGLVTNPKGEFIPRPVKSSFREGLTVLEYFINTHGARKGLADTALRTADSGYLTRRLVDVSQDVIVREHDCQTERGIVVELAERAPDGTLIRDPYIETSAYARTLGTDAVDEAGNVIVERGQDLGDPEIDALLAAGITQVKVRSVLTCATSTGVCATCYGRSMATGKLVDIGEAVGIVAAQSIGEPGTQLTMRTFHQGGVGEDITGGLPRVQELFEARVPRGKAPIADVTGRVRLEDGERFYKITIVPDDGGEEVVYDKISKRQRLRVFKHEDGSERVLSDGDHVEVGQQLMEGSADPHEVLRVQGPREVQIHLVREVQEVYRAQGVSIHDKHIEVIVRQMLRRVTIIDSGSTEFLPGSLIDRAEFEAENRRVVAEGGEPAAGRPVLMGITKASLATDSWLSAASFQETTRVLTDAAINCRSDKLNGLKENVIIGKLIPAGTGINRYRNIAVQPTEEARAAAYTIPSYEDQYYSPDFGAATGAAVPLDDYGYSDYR
Chain of M. tuberculosis RNA polymerase core enzyme, M. tuberculosis σ^A (P9WGY9 whole entry): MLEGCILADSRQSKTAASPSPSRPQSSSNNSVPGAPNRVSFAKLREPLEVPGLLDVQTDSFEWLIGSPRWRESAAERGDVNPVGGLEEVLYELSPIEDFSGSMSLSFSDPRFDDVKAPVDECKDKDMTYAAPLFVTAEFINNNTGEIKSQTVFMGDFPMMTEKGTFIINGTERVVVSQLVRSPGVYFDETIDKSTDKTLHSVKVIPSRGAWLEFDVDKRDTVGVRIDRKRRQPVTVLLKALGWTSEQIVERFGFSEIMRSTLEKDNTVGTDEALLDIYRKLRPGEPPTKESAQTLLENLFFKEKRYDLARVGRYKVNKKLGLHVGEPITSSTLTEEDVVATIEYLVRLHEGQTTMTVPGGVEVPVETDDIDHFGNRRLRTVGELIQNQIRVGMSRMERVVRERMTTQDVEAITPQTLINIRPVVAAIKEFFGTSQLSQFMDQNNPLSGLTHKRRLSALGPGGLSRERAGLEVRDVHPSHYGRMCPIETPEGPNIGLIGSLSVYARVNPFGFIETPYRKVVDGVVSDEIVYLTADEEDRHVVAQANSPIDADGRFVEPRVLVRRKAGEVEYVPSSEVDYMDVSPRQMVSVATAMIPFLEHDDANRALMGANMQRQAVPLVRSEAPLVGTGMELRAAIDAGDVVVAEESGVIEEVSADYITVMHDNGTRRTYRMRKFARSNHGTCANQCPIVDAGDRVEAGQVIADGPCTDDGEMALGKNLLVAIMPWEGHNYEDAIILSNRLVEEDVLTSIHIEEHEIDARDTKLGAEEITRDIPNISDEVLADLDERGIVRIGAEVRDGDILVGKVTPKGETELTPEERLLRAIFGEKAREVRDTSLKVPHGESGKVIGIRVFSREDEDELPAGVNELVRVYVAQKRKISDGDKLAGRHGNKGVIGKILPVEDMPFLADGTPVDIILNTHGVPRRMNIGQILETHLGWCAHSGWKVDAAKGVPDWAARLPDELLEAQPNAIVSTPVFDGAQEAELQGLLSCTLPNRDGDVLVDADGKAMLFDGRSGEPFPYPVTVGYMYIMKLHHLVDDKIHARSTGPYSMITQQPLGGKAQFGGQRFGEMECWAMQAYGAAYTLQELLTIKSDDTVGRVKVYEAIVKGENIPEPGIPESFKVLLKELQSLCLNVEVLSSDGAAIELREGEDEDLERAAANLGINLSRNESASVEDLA
Chain of M. tuberculosis RNA polymerase core enzyme, M. tuberculosis σ^A (P9WGZ1 whole entry, further chain): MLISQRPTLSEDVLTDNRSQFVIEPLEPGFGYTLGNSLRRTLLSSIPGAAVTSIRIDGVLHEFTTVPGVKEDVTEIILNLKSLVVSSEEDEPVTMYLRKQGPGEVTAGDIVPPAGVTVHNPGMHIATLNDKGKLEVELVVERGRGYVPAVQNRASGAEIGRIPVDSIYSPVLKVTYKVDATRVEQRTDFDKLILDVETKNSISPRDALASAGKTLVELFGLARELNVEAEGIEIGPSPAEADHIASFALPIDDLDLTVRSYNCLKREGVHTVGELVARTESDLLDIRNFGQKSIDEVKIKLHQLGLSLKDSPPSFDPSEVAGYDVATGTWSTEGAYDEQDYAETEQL

Structure (SMILES) | MIC (Yersinia pestis C092) | MIC [1] | MIC [2] | IC50 [3] | MIC (Brucella melitensis 16M) | MIC [4] | IC50 [5] | MIC [6] | MIC [7] | MIC [8] | MIC (Burkholderia mallei CHN7) | MIC [9] | IC50 [10]
CCCCCCc1ccc(C=C(C)C(=O)c2c(O)cc(C(C)CC/C=C/NC(=O)OC)oc2=O)cc1 (mixture of isomers) [APY33, methyl (E)-5-(3-((E/Z)-3-(4-hexylphenyl)-2-methylacryloyl)-4-hydroxy-2-oxo-2H-pyran-6-yl)hex-1-enylcarbamate] | 6 µg/mL | 0.3 µg/mL | 6 µg/mL | 8 nM | 0.4 µg/mL | 3 µg/mL | 10 nM | 6 µg/mL | 2 µg/mL | 2 µg/mL | 2 µg/mL | 20 µg/mL | 400 nM
CCCCc1ccc(C=C(C)C(=O)c2c(O)cc(C(C)CC/C=C/NC(=O)OC)oc2=O)s1 (mixture of isomers) [APY16, methyl (E)-5-(3-((E/Z)-3-(5-butylthiophen-2-yl)-2-methylacryloyl)-4-hydroxy-2-oxo-2H-pyran-6-yl)hex-1-enylcarbamate] | 10 µg/mL | 0.1 µg/mL | 30 µg/mL | 30 nM | 0.8 µg/mL | 0.8 µg/mL | 100 nM | 6 µg/mL | 0.6 µg/mL | 2 µg/mL | 2 µg/mL | 20 µg/mL | 300 nM
CCCCCCc1csc(C=C(C)C(=O)c2c(O)cc(C(C)CC/C=C/NC(=O)OC)oc2=O)c1 (mixture of isomers) [APY18, methyl (E)-5-(3-((E/Z)-3-(4-hexylthiophen-2-yl)-2-methylacryloyl)-4-hydroxy-2-oxo-2H-pyran-6-yl)hex-1-enylcarbamate] | 6 µg/mL | 0.07 µg/mL | 10 µg/mL | 7 nM | 0.8 µg/mL | 3 µg/mL | 70 nM | 6 µg/mL | 4 µg/mL | 2 µg/mL | 2 µg/mL | 4 µg/mL | 600 nM
COC(=O)N/C=C/CCC(C)c1cc(O)c(C(=O)C(C)=Cc2ccc(CCCCC(F)(F)F)s2)c(=O)o1 (mixture of isomers) [APY98, methyl ((1E)-5-(4-hydroxy-3-(2-methyl-3-(5-(5,5,5-trifluoropentyl)thiophen-2-yl)acryloyl)-2-oxo-2H-pyran-6-yl)hex-1-en-1-yl)carbamate] | – | 0.1 µg/mL | 50 µg/mL | 6 nM | – | – | – | – | 1 µg/mL | – | – | 20 µg/mL | 40 nM
CCCCc1ccc2cc(C=C(C)C(=O)c3c(O)cc(C(C)CC/C=C/NC(=O)OC)oc3=O)oc2c1 (mixture of isomers) [APY84, methyl ((1E)-5-(3-(3-(6-butylbenzofuran-2-yl)-2-methylacryloyl)-4-hydroxy-2-oxo-2H-pyran-6-yl)hex-1-en-1-yl)carbamate] | – | 0.1 µg/mL | 30 µg/mL | 2 nM | – | – | 60 nM | – | 3 µg/mL | – | – | > 40 µg/mL | 20 nM
CCCCc1ccc2cc(C=C(C)C(=O)c3c(O)cc(C(C)CC/C=C/NC(=O)OC)oc3=O)sc2c1 (mixture of isomers) [APY86, methyl ((1E)-5-(3-(3-(6-butylbenzo[b]thiophen-2-yl)-2-methylacryloyl)-4-hydroxy-2-oxo-2H-pyran-6-yl)hex-1-en-1-yl)carbamate] | – | 0.2 µg/mL | > 50 µg/mL | 20 nM | – | – | 300 nM | – | > 40 µg/mL | – | – | > 40 µg/mL | 1000 nM
COC(=O)N/C=C/CCC(C)c1cc(O)c(C(=O)C(C)=Cc2ccc(CCCCCF)s2)c(=O)o1 (stereo not drawn) [APY97, methyl ((1E)-5-(3-(3-(5-(5-fluoropentyl)thiophen-2-yl)-2-methylacryloyl)-4-hydroxy-2-oxo-2H-pyran-6-yl)hex-1-en-1-yl)carbamate] | – | 0.1 µg/mL (≈ 0.198 µM) | > 50 µg/mL | 20 nM | – | – | 400 nM | – | 2 µg/mL (≈ 3.96 µM) | – | – | > 40 µg/mL | –
CCCCc1ccc2c(c1)cc(C=C(C)C(=O)c1c(O)cc(C(C)CC/C=C/NC(=O)OC)oc1=O)n2C (mixture of isomers) [APY104, methyl ((1E)-5-(3-(3-(5-butyl-1-methyl-1H-indol-2-yl)-2-methylacryloyl)-4-hydroxy-2-oxo-2H-pyran-6-yl)hex-1-en-1-yl)carbamate] | – | 0.1 µg/mL | > 50 µg/mL | 8 nM | – | – | – | – | 5 µg/mL | – | – | 9 µg/mL | 200 nM
CCCOc1ccc(C=C(C)C(=O)c2c(O)cc(C(C)CC/C=C/NC(=O)OC)oc2=O)s1 (mixture of isomers) [APY103, methyl ((1E)-5-(4-hydroxy-3-(2-methyl-3-(5-propoxythiophen-2-yl)acryloyl)-2-oxo-2H-pyran-6-yl)hex-1-en-1-yl)carbamate] | – | 0.4 µg/mL | 30 µg/mL | 20 nM | – | – | – | – | 2 µg/mL | – | – | > 40 µg/mL | 20 nM
CCCCc1ccc(C=C(C)C(=O)c2c(O)cc(C(C)CC/C=C/NC(=O)OC)oc2=O)c(C)c1 (mixture of isomers) [APY87, methyl ((1E)-5-(3-(3-(4-butyl-2-methylphenyl)-2-methylacryloyl)-4-hydroxy-2-oxo-2H-pyran-6-yl)hex-1-en-1-yl)carbamate] | – | 0.2 µg/mL | > 50 µg/mL | 10 nM | – | – | 70 nM | – | 1 µg/mL | – | – | > 40 µg/mL | 30 nM
CCCCc1cc(C)c(C=C(C)C(=O)c2c(O)cc(C(C)CC/C=C/NC(=O)OC)oc2=O)s1 (mixture of isomers) [APY75, methyl (E)-5-(3-((E/Z)-3-(5-butyl-3-methylthiophen-2-yl)-2-methylacryloyl)-4-hydroxy-2-oxo-2H-pyran-6-yl)hex-1-enylcarbamate] | – | 0.1 µg/mL | 30 µg/mL | 9 nM | 3 µg/mL | 10 µg/mL | 80 nM | 6 µg/mL | 0.3 µg/mL | 0.8 µg/mL | 6 µg/mL | 4 µg/mL | 60 nM
COC(=O)N/C=C/CCC(C)c1cc(O)c(C(=O)C(C)=Cc2sc(CCC(C)C)cc2C)c(=O)o1 (mixture of isomers) [APY76, methyl (E)-5-(3-((E/Z)-3-(5-isopentyl-3-methylthiophen-2-yl)-2-methylacryloyl)-4-hydroxy-2-oxo-2H-pyran-6-yl)hex-1-enylcarbamate] | – | 0.09 µg/mL | 30 µg/mL | 3 nM | 3 µg/mL | 10 µg/mL | 80 nM | 6 µg/mL | 0.2 µg/mL | 0.4 µg/mL | 6 µg/mL | 4 µg/mL | 50 nM
CCOc1ccc(C=C(C)C(=O)c2c(O)cc(C(C)CC/C=C/NC(=O)OC)oc2=O)s1 (mixture of isomers) [APY102, methyl ((1E)-5-(3-(3-(5-ethoxythiophen-2-yl)-2-methylacryloyl)-4-hydroxy-2-oxo-2H-pyran-6-yl)hex-1-en-1-yl)carbamate] | – | 1 µg/mL | 30 µg/mL | 200 nM | – | – | – | – | 10 µg/mL | – | – | > 40 µg/mL | 500 nM
